Where two headings read alike, the source gives them in different places.
How the values were obtained:
[1] = molecular target: T1, A1AR (Homo sapiens, UniProt P30542); details: species h; inhibition of binding at 10 μM; tested in ref 26; cited from earlier work
T1 construct: expressed in transfected cells
T1 sequence (P30542 1-326): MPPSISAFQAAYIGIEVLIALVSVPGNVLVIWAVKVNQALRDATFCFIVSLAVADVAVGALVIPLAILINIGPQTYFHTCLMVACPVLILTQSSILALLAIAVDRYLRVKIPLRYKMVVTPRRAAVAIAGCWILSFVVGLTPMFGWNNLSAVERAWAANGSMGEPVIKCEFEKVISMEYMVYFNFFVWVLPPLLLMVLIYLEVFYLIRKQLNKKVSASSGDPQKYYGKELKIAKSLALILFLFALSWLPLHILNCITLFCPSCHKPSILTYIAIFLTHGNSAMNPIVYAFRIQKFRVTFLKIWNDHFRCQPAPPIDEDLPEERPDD

[2] = molecular target: T2, A3AR (Mus musculus, UniProt Q61618); assay: Radioligand binding, membranes of HEK293 cells stably expressing mA3AR; details: species m; n 3-4; read-out: affinity (KV nM) A3
T2 construct: expressed in transfected cells
T2 sequence (Q61618 1-319): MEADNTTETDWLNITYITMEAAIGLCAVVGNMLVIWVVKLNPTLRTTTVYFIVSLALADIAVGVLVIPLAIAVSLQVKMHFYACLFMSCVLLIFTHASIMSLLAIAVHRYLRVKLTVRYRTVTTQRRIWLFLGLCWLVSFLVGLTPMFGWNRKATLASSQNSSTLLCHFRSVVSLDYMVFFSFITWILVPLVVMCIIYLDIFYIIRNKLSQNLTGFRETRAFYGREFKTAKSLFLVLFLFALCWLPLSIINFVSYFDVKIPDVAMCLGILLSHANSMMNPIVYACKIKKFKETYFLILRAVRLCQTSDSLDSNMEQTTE

[3] = molecular target: T3, A1AR (Mus musculus, UniProt Q60612); assay: Radioligand binding, membranes of HEK293 cells stably expressing mA1AR; details: for inhibition at 10 µM: read-out: % inhibition A1; for Ki: species m, n 3-4, read-out: affinity (KV nM) A1
T3 construct: expressed in transfected cells
T3 sequence (Q60612 1-326): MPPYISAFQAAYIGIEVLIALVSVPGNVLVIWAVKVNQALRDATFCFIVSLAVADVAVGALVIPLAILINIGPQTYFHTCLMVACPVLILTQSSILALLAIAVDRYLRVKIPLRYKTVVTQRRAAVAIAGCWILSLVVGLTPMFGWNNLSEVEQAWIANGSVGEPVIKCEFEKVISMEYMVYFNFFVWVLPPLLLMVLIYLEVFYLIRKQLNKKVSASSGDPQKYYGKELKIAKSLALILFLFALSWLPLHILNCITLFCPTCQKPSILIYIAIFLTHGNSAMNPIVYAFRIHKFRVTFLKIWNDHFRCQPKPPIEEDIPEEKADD

[4] = molecular target: T4, A2AAR (Mus musculus, UniProt Q60613); assay: Radioligand binding, membranes of HEK293 cells stably expressing mA2AAR; details: read-out: % inhibition A2A
T4 construct: expressed in transfected cells
T4 sequence (Q60613 whole entry): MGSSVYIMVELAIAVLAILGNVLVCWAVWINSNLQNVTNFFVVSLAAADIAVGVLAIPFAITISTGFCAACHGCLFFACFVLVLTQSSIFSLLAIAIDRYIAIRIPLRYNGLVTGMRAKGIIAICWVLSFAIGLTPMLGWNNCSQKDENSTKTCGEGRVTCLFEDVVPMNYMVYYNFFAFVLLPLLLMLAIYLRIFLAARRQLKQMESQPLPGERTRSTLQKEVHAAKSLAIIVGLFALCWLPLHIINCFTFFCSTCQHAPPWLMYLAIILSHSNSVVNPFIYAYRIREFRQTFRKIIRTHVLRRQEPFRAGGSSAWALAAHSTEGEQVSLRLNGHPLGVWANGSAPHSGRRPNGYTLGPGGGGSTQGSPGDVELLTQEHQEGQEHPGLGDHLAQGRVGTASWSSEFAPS

[5] = molecular target: T5, hA3AR (Homo sapiens, UniProt P0DMS8); assay: cAMP assay, inhibition of forskolin-stimulated cAMP in hA3AR-transfected CHO cells; assay type: cell-based; details: for Emax at 10 µM: CHO, read-out: % efficacy, A3
T5 construct: expressed in transfected cells
T5 sequence (P0DMS8 1-318): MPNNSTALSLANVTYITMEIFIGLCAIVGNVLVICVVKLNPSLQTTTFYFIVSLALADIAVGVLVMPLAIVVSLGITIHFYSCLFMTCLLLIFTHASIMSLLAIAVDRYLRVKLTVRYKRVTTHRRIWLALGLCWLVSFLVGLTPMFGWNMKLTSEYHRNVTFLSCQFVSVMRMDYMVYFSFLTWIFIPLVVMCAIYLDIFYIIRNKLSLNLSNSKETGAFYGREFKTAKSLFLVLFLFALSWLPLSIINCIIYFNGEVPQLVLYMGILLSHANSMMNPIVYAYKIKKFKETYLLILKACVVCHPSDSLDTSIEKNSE

[6] = molecular target: T1, A1AR; assay: Radioligand binding, membranes of CHO cells stably expressing hA1AR; details: for inhibition at 10 µM: read-out: % inhibition A1
[7] = molecular target: T6, mA3AR (Mus musculus, UniProt Q61618); assay: cAMP assay, inhibition of forskolin-stimulated cAMP in mA3AR-transfected HEK cells; assay type: cell-based; details: HEK293; read-out: % efficacy, A3
T6 construct: expressed in transfected cells
T6 sequence (Q61618 1-319): T2 sequence (Q61618 1-319)

[8] = molecular target: T7, A3AR (Homo sapiens, UniProt P0DMS8); assay: Radioligand binding, membranes of CHO cells stably expressing hA3AR; details: species h; agonist radioligand 42; n 3-4; read-out: affinity (KV nM) A3
T7 construct: expressed in transfected cells
T7 sequence (P0DMS8 1-318): T5 sequence (P0DMS8 1-318)

[9] = molecular target: T8, A2AAR (Homo sapiens, UniProt P29274); assay: Radioligand binding, membranes of HEK293 cells stably expressing hA2AAR; details: read-out: % inhibition A2A
T8 construct: expressed in transfected cells
T8 sequence (P29274 whole entry): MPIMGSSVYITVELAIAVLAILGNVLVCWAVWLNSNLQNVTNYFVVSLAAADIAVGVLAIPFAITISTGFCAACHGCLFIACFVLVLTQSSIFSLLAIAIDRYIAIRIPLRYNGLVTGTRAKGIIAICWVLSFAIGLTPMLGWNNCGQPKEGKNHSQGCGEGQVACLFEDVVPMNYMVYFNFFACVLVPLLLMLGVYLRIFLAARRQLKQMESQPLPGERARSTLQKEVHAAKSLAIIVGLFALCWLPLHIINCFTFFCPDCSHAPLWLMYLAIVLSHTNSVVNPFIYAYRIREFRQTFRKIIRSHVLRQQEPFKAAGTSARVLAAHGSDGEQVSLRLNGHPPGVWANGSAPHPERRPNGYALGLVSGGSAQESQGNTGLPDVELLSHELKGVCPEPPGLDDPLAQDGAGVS

[10] = molecular target: T8, A2AAR; details: species h, tested in ref 26, cited from earlier work; for % inhibition A2A: inhibition of binding at 10 μM; for Ki: agonist radioligand 41, read-out: affinity (KV nM) A2A
[11] = molecular target: T7, A3AR; details: species h; agonist radioligand 42; tested in ref 26; read-out: affinity (KV nM) A3; cited from earlier work
[12] = tested on: Male Balb/c mice; assay: Naloxone-precipitated withdrawal in morphine dependent mice; assay type: in vivo, mouse; details: IB-MECA 0.1 mg/kg with three day morphine regimen
Procedure: Male Balb/c mice (19-26 g) were purchased from University of Adelaide Laboratory Animal Services (Waite Campus, Adelaidem South Australia) and housed 6 per individually ventilated cage (IVC) and maintained in controlled environment (12 h light/dark cycle) with food and water available ad libitum.
A group of control mice (n=7 per strain) received an equal number of saline injections over 3 days.
EtOH was maintained at 0.02% final drug preparation. Vehicle was 0.02% EtOH in normal saline.
Immediately after the naloxone injection, animals were placed into individual Plexiglas observation cylinders (25 h×11 w cm) (Nalgene, Scoresby, VIC, Australia). Withdrawal jumping response symptoms were recorded and the frequency of jumps for each mouse was summed over 30 min. Other characteristic opioid withdrawal behaviors were also recorded such as front paw shakes and hunched/prayer postures. All testing was conducted blind to group assignment.

[13] = tested on: Male Sprague Dawley rats; assay: Rat morphine antinociceptive tolerance study (osmotic minipump, tail flick test); assay type: in vivo
From the text: Minipumps were filled according to manufacturer's specifications. The use of the osmotic pump ensures a continuous subcutaneously delivery of morphine avoiding intermittent periods of withdrawal. […] The integrity of the pump delivery system was reexamined at the end of each experiment when the spinal cords are harvested.
(§1) Test substances or vehicle were given on day 0 through 6 after completion of the behavioral tests.

[14] = tested on: Male Sprague Dawley rats; assay: Acute antinociceptive interaction with acute morphine (tail flick); assay type: in vivo, rat
From the text: as §1

[15] = Solubility in EtOH on preparing the dosing solution; details: 5 mg dissolved in 5 ml EtOH

| SMILES | % inhibition A1 [1] | Ki [2] | inhibition at 10 µM [3] | inhibition at 10 µM [4] | Emax at 10 µM [5] | % inhibition A2A [10] | also measured |
| --- | --- | --- | --- | --- | --- | --- | --- |
| CNC(=O)[C@@]12C[C@@H]1[C@@H](n1cnc3c(NCc4cccc(Cl)c4)nc(C#Cc4ccccc4)nc31)[C@H](O)[C@@H]2O [Compound 5] | (20% ± 3%) | 1.23 ± 0.14 nM | 50% | 2% |  |  | % efficacy, A3 ([5]; species h, percentage of maximal effect of 5′-N-ethylcarboxamidoadenosine 43, each at 10 μM, mean ± SEM): 101 ± 5.9% |
| CNC(=O)[C@@]12C[C@@H]1[C@@H](n1cnc3c(NCc4cccc(Cl)c4)nc(C#Cc4ccc(S(=O)(=O)O)cc4)nc31)[C@H](O)[C@@H]2O [Compound 6] |  | 9.68 ± 0.15 nM |  | 14% | 96.8 ± 5.7% |  | Ki ([6]; species h, agonist radioligand 40, n 3-4, read-out: affinity (KV nM) A1): 383 ± 75 nM; Emax [7]: 95.7 ± 19.1%; Ki [8]: 11.1 ± 1.6 nM; inhibition at 10 µM [9]: 23%; Ki [3]: 35.1 ± 5.5 nM |
| CNC(=O)[C@@]12C[C@@H]1[C@@H](n1cnc3c(NCc4cccc(Cl)c4)nc(C#Cc4cccc(S(=O)(=O)O)c4)nc31)[C@H](O)[C@@H]2O [Compound 7] |  | 11.3 ± 1.9 nM | 15% | 1% | 98.2 ± 6.7% |  | inhibition at 10 µM [6]: 16%; Emax [7]: 89.3 ± 7.1%; Ki [8]: 1.9 ± 0.03 nM; inhibition at 10 µM [9]: 7% |
| CNc1nc(C#Cc2ccccc2)nc2c1ncn2[C@H]1[C@H](O)[C@H](O)[C@@H]2C[C@@H]21 [Compound 8] | (18% ± 1%) | 1530 ± 240 nM |  | 8% | 12.6 ± 4% | (18% ± 3%) | Ki [3]: 3800 ± 780 nM |
| CCNc1nc(C#Cc2ccccc2)nc2c1ncn2[C@H]1[C@H](O)[C@H](O)[C@@H]2C[C@@H]21 [Compound 9] | (36% ± 4%) | 1480 ± 170 nM | 49% | 49% | 0.8 ± 5.2% | (42% ± 4%) |  |
| CCNc1nc(C#Cc2ccccc2Cl)nc2c1ncn2C1C(O)C(O)C2CC21 (stereo not shown) [Compound 10] | (25% ± 11%) |  |  |  | 7 ± 5.2% | (17% ± 6%) | Ki [11]: 5.8 ± 2.08 nM |
| OC1C(O)C(n2cnc3c(NCc4cccc(Cl)c4)nc(C#Cc4ccccc4)nc32)C2CC12 (stereo not shown) [Compound 11] |  |  |  |  | 13.8 ± 5.1% |  | Ki [10]: 680 ± 170 nM |
| OC1C(O)C(n2cnc3c(NCc4cccc(Cl)c4)nc(C#Cc4cccc(Cl)c4)nc32)C2CC12 (stereo not shown) [Compound 12] |  |  |  |  |  |  | Ki [10]: 1800 ± 310 nM |
| O[C@@H]1[C@H](O)[C@@H]2C[C@@H]2[C@H]1n1cnc2c(NCc3cccc(Cl)c3)nc(C#Cc3ccc(-c4ccccc4)cc3)nc21 [Compound 13] | (48% ± 4%) | 255 ± 77 nM |  | 0% | 3.5 ± 3.2% | (12% ± 7%) | Ki [3]: 1110 ± 220 nM |
| O[C@@H]1[C@H](O)[C@@H]2C[C@@H]2[C@H]1n1cnc2c(NCCc3ccccc3)nc(C#Cc3ccccc3)nc21 [Compound 14] | (30% ± 8%) |  |  |  | 4.1 ± 1.2% | (22% ± 5%) |  |
| OC1C(O)C(n2cnc3c(NCC(c4ccccc4)c4ccccc4)nc(C#Cc4ccccc4Cl)nc32)C2CC12 (stereo not shown) [Compound 15] | (26% ± 4%) |  |  |  | 2.6 ± 1.3% | (22% ± 2%) | Ki [11]: 140 ± 30 nM |
| O=S(=O)(O)c1ccc(CCNc2nc(C#Cc3ccccc3)nc3c2ncn3[C@H]2[C@H](O)[C@H](O)[C@@H]3C[C@@H]32)cc1 [Compound 16] |  | 3920 ± 1190 nM | 18% | 1% | 7.2% |  | inhibition at 10 µM [6]: 10%; Ki [8]: 30.2 ± 4.3 nM; inhibition at 10 µM [9]: 15% |
| CNC(=O)[C@@]12C[C@@H]1[C@@H](n1cnc3c(NCCc4ccccc4)nc(C#Cc4ccccc4)nc31)[C@H](O)[C@@H]2O [Compound 17] |  | 8.75 ± 2.12 nM | 25% | 1% | 105 ± 9.8% |  | inhibition at 10 µM [6]: 11%; Emax [7]: 115 ± 14.6%; Ki [8]: 1.23 ± 0.57 nM; inhibition at 10 µM [9]: 32% |
| CNC(=O)[C@H]1O[C@@H](n2cnc3c(NCc4cccc(I)c4)ncnc32)[C@H](O)[C@@H]1O [IB-MECA, N^6-(3-iodobenzyl)-adenosine-5′-N-methyluronamide] |  |  |  |  |  |  | less naloxone-precipitated jumping vs morphine dependent mice receiving vehicle ([12]; 95% CI 1 to 17): 9 jumps/30 min; less episodes of hunched/prayer posture vs morphine dependent mice receiving vehicle ([12]; 95% CI 3 to 7, 30 minute observation): 5 episodes; less bouts of front paw shakes vs morphine dependent mice receiving vehicle ([12]; 95% CI 5 to 15): 10 bouts of front paw shakes/30 min; development of morphine-induced antinociceptive tolerance ([13]; IB-MECA i.p. daily during 7 day s.c. morphine infusion, tail flick 30 min after acute morphine, day 3 and 6, n=2): blocked the development of morphine-induced antinociceptive tolerance; effect on baseline tail flick latency ([13]; given alone daily over 6 days to rats that received saline infusion): had no effect on baseline tail flick latency; potentiation of antinociceptive responses to acute morphine ([14]; IB-MECA 0.3 mg/kg i.p. 15 min before morphine 3 mg/kg i.p.): did not potentiate the antinociceptive responses to acute morphine; antinociception after acute morphine with IB-MECA pretreatment ([14]; IB-MECA 0.3 mg/kg i.p. 15 min before morphine 3 mg/kg i.p., at 30 min): 35+5 % antinociception; solubility in EtOH [15]: soluble |
| CN1CC[C@]23c4c5ccc(O)c4O[C@H]2[C@@H](O)C=C[C@H]3[C@H]1C5 [morphine] |  |  |  |  |  |  | analgesia at 2 hr following minipump implant ([13]; morphine 75 μg/μl/h s.c. by osmotic minipump): approximately 100 % analgesia; development of antinociceptive tolerance on chronic morphine infusion ([13]; s.c. infusion over 7 days (Veh-Mor, n=2) vs saline infusion, P<0.001, day 3 and 6): led to the development of antinociceptive tolerance; antinociception after acute morphine alone ([14]; morphine 3 mg/kg i.p., at 30 min): 40±2 % antinociception |

— patent publication US20150087613A1, “Inhibition of Opioid Antinociceptive Tolerance and Withdrawal in Nociceptive Pain Therapy” (Saint Louis University, priority 2013, published 2015)
